Tests used:
NANOLUC® enzyme = NANOLUC® enzyme (Oplophorus gracilirostris, UniProt Q9GV45, A31E/A60N/A81I/F95D/I117V/K70R/L54V/L99Q/M102K/N193R/P142E/Q151K/Q38R/Q45L/V71I/Y165I); assay: Inhibitor IC50 determination (NANOLUC enzyme, furimazine); type: biochemical; details: IC50 (uM), 0.4 ng/ml NANOLUC enzyme, final furimazine 10 uM (at Km)
[1] = tested on: Nluc-ADRB2 (extracellular Nluc) or ADRB2-Nluc (intracellular Nluc); assay: Cell permeability with bioluminescent imaging (HeLa, Nluc-ADRB2 / ADRB2-Nluc); type: cell-based; details: 30 μM compound, 10 μM furimazine
Description: HeLa cells were transiently transfected with Nluc-ADRB2 (extracellular Nluc) or ADRB2-Nluc (intracellular Nluc) to anchor and orient Nluc extracellularly or intracellularly, respectively. 24 hrs post-transfection, cells were treated with −/+30 μM of a thienopyrrole compound, JRW-0147, JRW-0013, and JRW-0344. 10 μM furimazine was added, and luminescence was detected by imaging on the Olympus LV200.

[2] = tested on: Beta-2 Adrenergic Receptor-Nluc (B2AR-Nluc) fusion protein; assay: Cell permeability, B2AR-Nluc in HEK293 -/+ digitonin; type: cell-based; details: HEK293 B2AR-Nluc -/+ 50 μg/mL digitonin; up to 2 hrs
Description: HEK293 were transiently transfected with Beta-2 Adrenergic Receptor-Nluc (B2AR-Nluc) fusion protein to anchor and orient Nluc cytosolically and pGEM-3z carrier DNA (1:100). 24 hrs post-transfection, cells were treated with −/+50 μg/mL digitonin to emulate a live and lytic scenario, respectively. Then, intact cells and permeabilized cells were exposed to a compound response curve of thienopyrrole compound up to 2 hrs. 10 μM furimazine (Promega Corp.) was added, and luminescence was measured. If a thienopyrrole compound (inhibitor) was permeable, the dose-response curves for both live and permeabilized cells overlapped. However, if a thienopyrrole compound was impermeable, the EC50 was right-shifted in the live cells relative to the permeabilized cells.

Nluc [3] = biological target: T1, Nluc (Oplophorus gracilirostris, UniProt Q9GV45, A31E/A60N/A81I/F95D/I117V/K70R/L54V/L99Q/M102K/N193R/P142E/Q151K/Q38R/Q45L/V71I/Y165I); assay: Multiplex RealTime-Glo / Caspase-Glo 3/7 in A549 cells; type: cell-based; set-up: purchased Promega Corporation; details: final, 1 hr
T1 sequence (Q9GV45 28-196 with tags or gaps with the stated changes limits assumed): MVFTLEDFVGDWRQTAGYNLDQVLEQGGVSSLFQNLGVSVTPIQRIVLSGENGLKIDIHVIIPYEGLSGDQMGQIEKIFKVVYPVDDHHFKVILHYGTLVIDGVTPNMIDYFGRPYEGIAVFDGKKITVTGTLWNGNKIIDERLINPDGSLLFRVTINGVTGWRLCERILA
Description: B) A549 cells were plated at 1,000 cells/well in 20 μL F12K media into wells of a Corning 3570 plate (n-4) and incubated overnight. Then, REALTIME-GLO™ MT Cell Viability assay reagents (Promega Corporation) were added to the wells as a 2× solution in 20 μL media. The reaction was incubated for 1 hr. 40 μL of a titration of JRW-0013 or JRW-0147 in CASPASE-GLO® 3/7 assay reagent (Promega Corporation) at 2× concentrations was added. The reactions were incubated at RT, and luminescence was determined at 1 hr.

UltraGlo luciferase = assay: Specificity of inhibition of Nluc luciferase: UltraGlo luciferase; type: biochemical, firefly; details: RT 2 hrs
Description: The following example describes the specificity of disclosed thienopyrrole compounds, JRW-0251, JRW-0344, and JRW-0147, to inhibit Nluc luciferase activity versus firefly luciferase activity, e.g., ULTRAGLO® luciferase. In a Corning 3570 assay plate, a solution containing 1 μM luciferin in Luciferase Detection Reagent (Promega Corporation V865/859) was added to the assay wells. An equal volume of titrations the thienopyrrole compounds, JRW-0251, JRW-0344, and JRW-0147 were then added to the wells. The reactions were incubated at RT for 2 hrs, and luminescence was measured on Tecan M1000 Pro plate reader.

Nluc [4] = biological target: T1, Nluc; assay: Multiplex RealTime-Glo / Caspase-Glo 3/7 in DMEM media; type: biochemical; set-up: purchased Promega Corporation; details: for Avg (luminescence), 1 hour: RealTime-Glo reagent in DMEM + Caspase-Glo 3/7
Description: In a Corning 3570 assay plate, 1× REAL-TIME-GLO™ MT Cell Viability assay reagent was prepared in 40 μL DMEM media (n=3) and incubated overnight. Next, 40 μL of a titration of JRW-0147 or JRW-0344 (2× concentration in CASPASE-GLO® 3/7 Assay Reagent (Promega Corporation)) was added. The reactions were incubated at room temperature, and luminescence determined at 1 hour.

Sequence of NANOLUC® enzyme (Q9GV45 28-196 with tags or gaps with the stated changes limits assumed): as above

**Q.** For `CCN(C(=O)Cn1c(C(=O)N[C@H]2CC[C@H](C(=O)OC)CC2)cc2sccc21)c1cccc(C)c1` [JRW-0013, trans-methyl-4-(4-(2-(ethyl(m-tolyl)amino)-2-oxoethyl)-4H-thieno[3,2-b]pyrrole-5-carboxamido)cyclohexane-1-carboxylate], which IC50 (NANOLUC® enzyme) is on record?
**A.** Its IC50 is 0.14 µM.

**Q.** What about the “Inhibition of Nluc oriented extracellularly / intracellularly by imaging (FIG. 19)” value [1] of the same compound?
**A.** The value was “inhibited Nluc in either orientation”.

**Q.** And the “Cell permeability, EC50 in Live vs Lytic cells (FIGS. 17A-17C)” value [2]?
**A.** The value was “cell permeable control characterized by similar EC50 in Live vs Lytic cells”.

**Q.** What about the “Caspase, Avg (luminescence)” value (Nluc [3]; Inhibitor 1.73 μM) of the same compound?
**A.** The value was 12879.

**Q.** And the “Caspase, Avg (luminescence)” value (Nluc [3]; Inhibitor 2.60 μM)?
**A.** Its value is 11813.

**Q.** What about the “Caspase, Avg (luminescence)” value (Nluc [3]; Inhibitor 3.90 μM) of the same compound?
**A.** Its value is 9148.

**Q.** What about the “Caspase, Avg (luminescence)” value (Nluc [3]; Inhibitor 5.85 μM) of the same compound?
**A.** Its value is 8059.

**Q.** What about the “Caspase, Avg (luminescence)” value (Nluc [3]; Inhibitor 8.78 μM) of the same compound?
**A.** Its value is 6703.

**Q.** And the “Caspase, Avg (luminescence)” value (Nluc [3]; Inhibitor 13.17 μM)?
**A.** Its value is 6014.

**Q.** And the “Caspase, Avg (luminescence)” value (Nluc [3]; Inhibitor 19.75 μM)?
**A.** Its value is 5095.

**Q.** And the “Caspase, Avg (luminescence)” value (Nluc [3]; Inhibitor 29.63 μM)?
**A.** Its value is 5132.

**Q.** What about the “Caspase, Avg (luminescence)” value (Nluc [3]; Inhibitor 44.44 μM) of the same compound?
**A.** The value was 4419.

**Q.** And the “Caspase, Avg (luminescence)” value (Nluc [3]; Inhibitor 66.67 μM)?
**A.** The value was 4017.

**Q.** What about the “Caspase, Avg (luminescence)” value (Nluc [3]; Inhibitor 100 μM) of the same compound?
**A.** The value was 3619.

**Q.** Which results are given for `CCN(C(=O)Cn1c(C(=O)N[C@H]2CC[C@H](C(=O)NCCCCCCS(=O)(=O)[O-])CC2)cc2sccc21)c1cccc(C)c1.[Na+]` [JRW-0344, Sodium 6-(trans-4-(4-(2-(ethyl(m-tolyl)amino)-2-oxoethyl)-4H-thieno[3,2-b]pyrrole-5-carboxamido)cyclohexane-1-carboxamido)hexane-1-sulfonate]?
**A.** Inhibition of firefly luciferase activity (Table 3) (UltraGlo luciferase): did not inhibit the firefly luciferase activity; UltraGlo luciferase, Avg (luminescence) (UltraGlo luciferase; [cmpd] 0.1953125 μM): 83526.33; UltraGlo luciferase, S/B (UltraGlo luciferase; [cmpd] 0.1953125 μM): 1.00; UltraGlo luciferase, Avg (luminescence) (UltraGlo luciferase; [cmpd] 0.390625 μM): 82945.67; UltraGlo luciferase, S/B (UltraGlo luciferase; [cmpd] 0.390625 μM): 1.00; UltraGlo luciferase, Avg (luminescence) (UltraGlo luciferase; [cmpd] 0.78125 μM): 82135.67; UltraGlo luciferase, S/B (UltraGlo luciferase; [cmpd] 0.78125 μM): 0.99; UltraGlo luciferase, Avg (luminescence) (UltraGlo luciferase; [cmpd] 1.5625 μM): 81368.33; UltraGlo luciferase, S/B (UltraGlo luciferase; [cmpd] 1.5625 μM): 0.98; UltraGlo luciferase, Avg (luminescence) (UltraGlo luciferase; [cmpd] 3.125 μM): 80134.33; UltraGlo luciferase, S/B (UltraGlo luciferase; [cmpd] 3.125 μM): 0.96; UltraGlo luciferase, Avg (luminescence) (UltraGlo luciferase; [cmpd] 6.25 μM): 83064.33; UltraGlo luciferase, S/B (UltraGlo luciferase; [cmpd] 6.25 μM): 1.00; UltraGlo luciferase, Avg (luminescence) (UltraGlo luciferase; [cmpd] 12.5 μM): 82454.67; UltraGlo luciferase, S/B (UltraGlo luciferase; [cmpd] 12.5 μM): 0.99; UltraGlo luciferase, Avg (luminescence) (UltraGlo luciferase; [cmpd] 25 μM): 83084.00; UltraGlo luciferase, S/B (UltraGlo luciferase; [cmpd] 25 μM): 1.00; UltraGlo luciferase, Avg (luminescence) (UltraGlo luciferase; [cmpd] 50 μM): 81805.00; UltraGlo luciferase, S/B (UltraGlo luciferase; [cmpd] 50 μM): 0.98; UltraGlo luciferase, Avg (luminescence) (UltraGlo luciferase; [cmpd] 100 μM): 79847.67; UltraGlo luciferase, S/B (UltraGlo luciferase; [cmpd] 100 μM): 0.96; UltraGlo luciferase, Avg (luminescence) (UltraGlo luciferase; [cmpd] 200 μM): 77230.33; UltraGlo luciferase, S/B (UltraGlo luciferase; [cmpd] 200 μM): 0.93; IC50 (NANOLUC® enzyme): 0.077 µM; Inhibition of Nluc oriented extracellularly / intracellularly by imaging (FIG. 19) [1]: inhibit the classic ring-like structure, but not when Nluc is orientated intracellularly; S/B, 1 hour (Nluc [4]; [cmpd] final 0.09765625 μM): 0.71; Avg (luminescence), 1 hour (Nluc [4]; [cmpd] final 0.09765625 μM): 112533; S/B, 1 hour (Nluc [4]; [cmpd] final 0.1953125 μM): 0.80; Avg (luminescence), 1 hour (Nluc [4]; [cmpd] final 0.1953125 μM): 126333; S/B, 1 hour (Nluc [4]; [cmpd] final 0.390625 μM): 0.88; Avg (luminescence), 1 hour (Nluc [4]; [cmpd] final 0.390625 μM): 138900; S/B, 1 hour (Nluc [4]; [cmpd] final 0.78125 μM): 0.61; Avg (luminescence), 1 hour (Nluc [4]; [cmpd] final 0.78125 μM): 95993; S/B, 1 hour (Nluc [4]; [cmpd] final 1.5625 μM): 0.41; Avg (luminescence), 1 hour (Nluc [4]; [cmpd] final 1.5625 μM): 65097; S/B, 1 hour (Nluc [4]; [cmpd] final 3.125 μM): 0.21; Avg (luminescence), 1 hour (Nluc [4]; [cmpd] final 3.125 μM): 33523; S/B, 1 hour (Nluc [4]; [cmpd] final 6.25 μM): 0.12; Avg (luminescence), 1 hour (Nluc [4]; [cmpd] final 6.25 μM): 19560; S/B, 1 hour (Nluc [4]; [cmpd] final 12.5 μM): 0.10; Avg (luminescence), 1 hour (Nluc [4]; [cmpd] final 12.5 μM): 15547; S/B, 1 hour (Nluc [4]; [cmpd] final 25 μM): 0.06; Avg (luminescence), 1 hour (Nluc [4]; [cmpd] final 25 μM): 9761; S/B, 1 hour (Nluc [4]; [cmpd] final 50 μM): 0.04; Avg (luminescence), 1 hour (Nluc [4]; [cmpd] final 50 μM): 6790; S/B, 1 hour (Nluc [4]; [cmpd] final 100 μM): 0.03; Avg (luminescence), 1 hour (Nluc [4]; [cmpd] final 100 μM): 5523; Cell permeability, EC50 in Live vs Lytic cells (FIGS. 17A-17C) [2]: cell impermeable characterized by right shifted EC50 in Live vs. Lytic cells

Reference: patent publication US10513694B2, “Thienopyrrole compounds and uses thereof” (PROMEGA CORPORATION, priority 2015, dated 2019)
